Patent publication US8969516B2, “Method of hydrolysis of peptide bond” (priority 2006, dated 2015)

Assay: MALDI-TOF screening of Ni^2+ dependent hydrolysis in a combinatorial peptide library
Format: physicochemical
Conditions: CH3CO-Gly-Ala-Ser-X-His-Z-Lys-Phe-Leu-NH2 library, Ni^2+ 2 mM, pH 8.2, 10 mM Tris, score=24/tm
Outline: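 Sublibraries of Ac-Gly-Ala-Ser/Thr-X-His-Z-Lys-Phe-Leu-NH2, randomized at Z and fixed at X, were hydrolyzed at 1 mM total peptide with 2 mM Ni2+ in 10 mM Tris, pH 8.2, at 37 °C or 45 °C. Cleavage was scored visually in MALDI-TOF spectra at 2, 4, 6 and 8 h.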

Row | Substance | hydrolysis score from MALDI-TOF screening (37° C.) | hydrolysis score from MALDI-TOF screening (45° C.)
1 | Ac-GASNHLKFL-NH2 [SNHL] | 4 (a score of 4 for detection at 6 hours) | 4 (a score of 4 for detection at 6 hours)
2 | Ac-GASNHMKFL-NH2 [SNHM] | 0 (a score of 0 if no trace of the product of hydrolysis was seen after 8 hours of incubation) | 0 (a score of 0 if no trace of the product of hydrolysis was seen after 8 hours of incubation)
3 | Ac-GASNHNKFL-NH2 [SNHN] | 0 (a score of 0 if no trace of the product of hydrolysis was seen after 8 hours of incubation) | 0 (a score of 0 if no trace of the product of hydrolysis was seen after 8 hours of incubation)
4 | Ac-GASNHPKFL-NH2 [SNHP] | 0 (a score of 0 if no trace of the product of hydrolysis was seen after 8 hours of incubation) | 0 (a score of 0 if no trace of the product of hydrolysis was seen after 8 hours of incubation)
5 | Ac-GASNHQKFL-NH2 [SNHQ] | 0 (a score of 0 if no trace of the product of hydrolysis was seen after 8 hours of incubation) | 0 (a score of 0 if no trace of the product of hydrolysis was seen after 8 hours of incubation)
6 | Ac-GASNHRKFL-NH2 [SNHR] | 6 (a score of 6 for detection at 4 hours) | 6 (a score of 6 for detection at 4 hours)
7 | Ac-GASNHSKFL-NH2 [SNHS] | 0 (a score of 0 if no trace of the product of hydrolysis was seen after 8 hours of incubation) | 0 (a score of 0 if no trace of the product of hydrolysis was seen after 8 hours of incubation)
8 | Ac-GASNHTKFL-NH2 [SNHT] | 0 (a score of 0 if no trace of the product of hydrolysis was seen after 8 hours of incubation) | 0 (a score of 0 if no trace of the product of hydrolysis was seen after 8 hours of incubation)
9 | Ac-GASNHVKFL-NH2 [SNHV] | 3 (a score of 3 for detection at 8 hours) | 3 (a score of 3 for detection at 8 hours)
10 | Ac-GASNHWKFL-NH2 [SNHW] | 6 (a score of 6 for detection at 4 hours) | 6 (a score of 6 for detection at 4 hours)
11 | Ac-GASNHYKFL-NH2 [SNHY] | 3 (a score of 3 for detection at 8 hours) | 3 (a score of 3 for detection at 8 hours)
12 | Ac-GASPHAKFL-NH2 [SPHA] | 0 (a score of 0 if no trace of the product of hydrolysis was seen after 8 hours of incubation) | 0 (a score of 0 if no trace of the product of hydrolysis was seen after 8 hours of incubation)
13 | Ac-GASPHDKFL-NH2 [SPHD] | 0 (a score of 0 if no trace of the product of hydrolysis was seen after 8 hours of incubation) | 0 (a score of 0 if no trace of the product of hydrolysis was seen after 8 hours of incubation)
14 | Ac-GASPHEKFL-NH2 [SPHE] | 0 (a score of 0 if no trace of the product of hydrolysis was seen after 8 hours of incubation) | 0 (a score of 0 if no trace of the product of hydrolysis was seen after 8 hours of incubation)
15 | Ac-GASPHFKFL-NH2 [SPHF] | 0 (a score of 0 if no trace of the product of hydrolysis was seen after 8 hours of incubation) | 0 (a score of 0 if no trace of the product of hydrolysis was seen after 8 hours of incubation)
16 | Ac-GASPHGKFL-NH2 [SPHG] | 0 (a score of 0 if no trace of the product of hydrolysis was seen after 8 hours of incubation) | 0 (a score of 0 if no trace of the product of hydrolysis was seen after 8 hours of incubation)
17 | Ac-GASPHHKFL-NH2 [SPHH] | 0 (a score of 0 if no trace of the product of hydrolysis was seen after 8 hours of incubation) | 0 (a score of 0 if no trace of the product of hydrolysis was seen after 8 hours of incubation)
18 | Ac-GASPHIKFL-NH2 [SPHI] | 0 (a score of 0 if no trace of the product of hydrolysis was seen after 8 hours of incubation) | 0 (a score of 0 if no trace of the product of hydrolysis was seen after 8 hours of incubation)
19 | Ac-GASPHKKFL-NH2 [SPHK] | 0 (a score of 0 if no trace of the product of hydrolysis was seen after 8 hours of incubation) | 0 (a score of 0 if no trace of the product of hydrolysis was seen after 8 hours of incubation)
20 | Ac-GASPHLKFL-NH2 [SPHL] | 0 (a score of 0 if no trace of the product of hydrolysis was seen after 8 hours of incubation) | 0 (a score of 0 if no trace of the product of hydrolysis was seen after 8 hours of incubation)
21 | Ac-GASPHMKFL-NH2 [SPHM] | 0 (a score of 0 if no trace of the product of hydrolysis was seen after 8 hours of incubation) | 0 (a score of 0 if no trace of the product of hydrolysis was seen after 8 hours of incubation)
22 | Ac-GASPHNKFL-NH2 [SPHN] | 0 (a score of 0 if no trace of the product of hydrolysis was seen after 8 hours of incubation) | 0 (a score of 0 if no trace of the product of hydrolysis was seen after 8 hours of incubation)
23 | Ac-GASPHPKFL-NH2 [SPHP] | 0 (a score of 0 if no trace of the product of hydrolysis was seen after 8 hours of incubation) | 0 (a score of 0 if no trace of the product of hydrolysis was seen after 8 hours of incubation)
24 | Ac-GASPHQKFL-NH2 [SPHQ] | 0 (a score of 0 if no trace of the product of hydrolysis was seen after 8 hours of incubation) | 0 (a score of 0 if no trace of the product of hydrolysis was seen after 8 hours of incubation)
25 | Ac-GASPHRKFL-NH2 [SPHR] | 0 (a score of 0 if no trace of the product of hydrolysis was seen after 8 hours of incubation) | 0 (a score of 0 if no trace of the product of hydrolysis was seen after 8 hours of incubation)
26 | Ac-GASPHSKFL-NH2 [SPHS] | 0 (a score of 0 if no trace of the product of hydrolysis was seen after 8 hours of incubation) | 0 (a score of 0 if no trace of the product of hydrolysis was seen after 8 hours of incubation)
